Reference: patent US7678390B2, “Carbon monoxide as a biomarker and therapeutic agent” (priority 1999, dated 2010)

Experiments:
MKK3/MKK6 = test: LPS-induced activation of MKK3/MKK6 in RAW 264.7 cells; assay type: cell-based, mouse; conditions: LPS in the presence of CO (data not shown)
Excerpt: Animals. Male C57BL/6 and IL-10 (−/−) mice were purchased from Jackson Laboratory (Bar Harbor, Me.), and allowed to acclimate for one week with rodent chow and water ad libitum. The MKK (−/−) mice were generated as previously described [Lu, et al., EMBO J. 18:1845-1857 (1999)]. Wild type littermates were used as controls. All animals were housed in accordance with guidelines from the American Association for Laboratory Animal Care and Research Protocols and were approved by the Animal Care and Use Committee of Yale University School of Medicine. Reagents. All reagents were purchased from Sigma Chemical Co. (St Louis, Mo.) unless specified otherwise. Plasmid Construct. Plasmid pSFFV/HO-1 was constructed by insertion of the rat HO-1 cDNA [Shibahara, et al., Proc. Natl. Acad. Sci. USA. 82: 7865-7869 (1985)] downstream of the Friend spleen focus-forming virus 5′ long-terminal repeat in the mammalian expression vector pSFFV/neo [Fuhlbrigge, et al, Proc. Natl. Acad. Sci. USA. 85: 5649-5653 (1988)] (kindly provided by Stanley Korsmeyer). Transfection. […] Gas samples were taken by the analyzer through a port in the top of the chambers at a rate of 1 L/min and analyzed by electrochemical detection, with a sensitivity of 10-600 ppm. Concentration levels were measured hourly and there were no fluctuations in the CO concentrations once the chamber had equilibrated (approximately 5 min). […]

rats = test: Tolerability of low concentrations of CO in rats; assay type: in vivo, rat
Excerpt: Animals were exposed to >98% O2 or 98% O2+CO mixtures at a flow rate of 12 liters/min in a 3.70-cubic-foot glass exposure chamber. Animals were supplied food and water during the exposures. CO at a concentration of 1% (10,000 ppm) in compressed air was mixed with >98% O2 in a stainless steel mixing cylinder prior to entering the exposure chamber. By varying the flow rates of CO into the mixing cylinder, concentrations delivered to the exposure chamber were controlled. Because the flow rate was primarily determined by the O2 flow, only the CO flow was changed to generate the different concentrations delivered to the exposure chamber. A carbon monoxide analyzer (Interscan Corporation, Chatsworth, Calif.) was used to measure CO levels continuously in the chamber. Gas samples were taken by the analyzer through a port in the top of the exposure chamber at a rate of 1 liter/min and analyzed by electrochemical detection with a sensitivity of 10 ppm to 600 ppm. CO levels in the chamber were recorded at hourly intervals and there were no changes in chamber CO concentrations once the chamber had equilibrated. O2 concentrations in the chamber were determined using a gas spectrometer.

[1] = tested on: rats given lipopolysaccharide; test: LPS-induced neutrophil influx into the airways of rats; assay type: in vivo, rat; conditions: LPS 3 mg/kg i.v., exposed to CO
Experimental: Animals were anesthesized with sodium pentobarbital 24 h after LPS administration or 56 h of hyperoxia exposure. BAL (35 ml/kg) was performed 4 times with PBS (pH 7.4). Cells were pooled from the lavages and centrifuged at 1200 g for 10 min. The supernatant was discarded and cells were resuspended in PBS. Cell counts were performed using a Neubaur hemocytometer. For differential analysis, samples were cytocentrifuged and stained with Diff-Quik. Measurement of Injury Markers Rats were removed at 56 h of hyperoxia and anesthetized with sodium pentobarbital. The pleural effusion was collected by inserting an 18 gauge needle and 10 cc syringe through the diaphragm and withdrawing all fluid present in the pleural cavity. BAL was performed as described above, and the first lavage was centrifuged at 1200 g for 10 min and the supernatant was assayed for the protein albumin as determined by Bromcresol Green Kit (BCG) from Sigma (St. Louis, Mo.). […] At each time point, 1 cc of blood was drawn into a heparinized syringe, sealed and placed on ice until analyzed for oxygen tension. Arterial oxygen tension and carboxyhemoglobin were determined using a BG3 Instrumentation Laboratory Blood Gas Analyzer and Co-oximeter (Boston, Mass.). […]

[C-]#[O+] [CO, carbon monoxide] was tested, and the “MKK3/MKK6 activation by LPS” value (MKK3/MKK6) was “augmentation”, the “500 ppm as fraction of the lethal concentration of CO” value (rats; in our model (data not shown)) was “one twentieth” and the untoward effects (rats; rats exposed to CO (50-500 ppm) alone) was “did not exhibit any untoward effects”. For the same compound, the “LPS-induced neutrophil influx into the airways” value [1] was “significantly inhibited”.
